Measured values as given in publication PMC12196291, “Absolute Configuration and Chiroptical Properties of Flexible Drug Avapritinib” (Pharmaceuticals, 2025).

Molecular target: C-KIT (D816V) (Homo sapiens, UniProt P10721, D816V)
Assay: in vitro kinase activity assay (substrate/ATP, 384-well, ELISA-BMG readout), positive control
Assay type: biochemical

Sequence of C-KIT (D816V) (P10721 546-976 D816V limits assumed): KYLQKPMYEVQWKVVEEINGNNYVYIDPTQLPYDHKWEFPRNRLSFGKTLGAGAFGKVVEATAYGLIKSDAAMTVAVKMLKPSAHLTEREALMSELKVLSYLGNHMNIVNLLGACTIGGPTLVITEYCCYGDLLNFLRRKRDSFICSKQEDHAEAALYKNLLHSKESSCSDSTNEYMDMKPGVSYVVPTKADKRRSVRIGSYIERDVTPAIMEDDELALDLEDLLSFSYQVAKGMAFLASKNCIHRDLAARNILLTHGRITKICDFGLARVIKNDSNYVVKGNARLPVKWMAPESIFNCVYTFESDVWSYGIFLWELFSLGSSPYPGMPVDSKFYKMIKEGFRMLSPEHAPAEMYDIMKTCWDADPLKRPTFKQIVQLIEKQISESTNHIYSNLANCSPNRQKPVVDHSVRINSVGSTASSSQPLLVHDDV

`S=C(NCc1ccc2c(c1)OCO2)N1CCN(c2ncnc3c2oc2ccccc23)CC1` [Amuvatinib] was tested, and the IC50 was 26.9 ± 1.51 nM.
